Here are results for 27 molecules from patent US12209087B2, “AKT1 modulators” (Alterome Therapeutics, Inc., priority 2022, dated 2025).

The structures appear in SMILES notation.

The target of the first assay is T1, full length AKT E17K (Homo sapiens, UniProt P31749, E17K).
T1 construct: host or cells: HEK-293 (ATCC CRL-1573)
T1 sequence (P31749 whole entry E17K): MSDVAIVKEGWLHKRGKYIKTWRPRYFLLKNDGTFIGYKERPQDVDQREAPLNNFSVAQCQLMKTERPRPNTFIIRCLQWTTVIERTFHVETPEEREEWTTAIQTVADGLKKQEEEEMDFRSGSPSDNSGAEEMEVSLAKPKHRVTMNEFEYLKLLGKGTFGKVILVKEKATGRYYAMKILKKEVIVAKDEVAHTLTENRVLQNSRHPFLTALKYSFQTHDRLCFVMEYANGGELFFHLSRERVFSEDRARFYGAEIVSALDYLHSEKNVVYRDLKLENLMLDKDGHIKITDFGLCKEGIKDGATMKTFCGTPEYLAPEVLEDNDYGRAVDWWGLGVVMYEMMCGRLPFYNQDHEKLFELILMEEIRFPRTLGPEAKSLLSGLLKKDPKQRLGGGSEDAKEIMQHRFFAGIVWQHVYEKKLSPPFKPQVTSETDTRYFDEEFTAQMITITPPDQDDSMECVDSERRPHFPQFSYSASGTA
The experiment in a line: NanoBRET Target Engagement (TE) Assay. It is filed as cell-based. The note with it: competitive displacement of tracer in cells, read-out: AKT1 E17K IC50. The method, boiled down:
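Compound and tracer incubated 2 h before luminescence at donor 450 nm and acceptor 600 nm, with extracellular signal inhibited. EC50 by sigmoidal variable-slope regression.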
On the technique in general: In BRET a luciferase serves as donor, and the signal depends on an acceptor being close.
Take `N#Cc1nccc(NC2CN(Cc3ccc(-n4c(-c5cccnc5N)nc5ccc(-c6ccc(F)cc6)nc54)cc3)C2)n1` [Example 443, 4-((1-(4-(2-(2-Aminopyridin-3-yl)-5-(4-fluorophenyl)-3H-imidazo[4,5-b]pyridin-3-yl)benzyl)azetidin-3-yl)amino)pyrimidine-2-carbonitrile]: the IC50 – broadly, the concentration that inhibits the measured activity by half – was less than 15 nM.

For `N#Cc1nccc(NC2CCN(Cc3ccc(-n4c(-c5cccnc5N)nc5ccc(OC(F)(F)F)nc54)cc3)CC2)n1` [Example 423, 4-((1-(4-(2-(2-Aminopyridin-3-yl)-5-(trifluoromethoxy)-3H-imidazo[4,5-b]pyridin-3-yl)benzyl)piperidin-4-yl)amino)pyrimidine-2-carbonitrile], the IC50 was in the range of 60 to 600 nM.

As to `Cc1cnn(-c2ccc3nc(-c4cccnc4N)n(-c4ccc(CN5CCC(Nc6ccnc(C#N)n6)CC5)cc4)c3n2)n1` [Example 568, 4-((1-(4-(2-(2-Aminopyridin-3-yl)-5-(4-methyl-2H-1,2,3-triazol-2-yl)-3H-imidazo[4,5-b]pyridin-3-yl)benzyl)piperidin-4-yl)amino)pyrimidine-2-carbonitrile], the IC50 is less than 15 nM.

With `N#Cc1nccc(NC2CCN(Cc3ccc(-n4c(-c5cccnc5N)nc5ccc(-c6ccc(F)cc6C#N)nc54)cc3)CC2)n1` [Example 525, 4-((1-(4-(2-(2-Aminopyridin-3-yl)-5-(2-cyano-4-fluorophenyl)-3H-imidazo[4,5-b]pyridin-3-yl)benzyl)piperidin-4-yl)amino)pyrimidine-2-carbonitrile], the IC50 lay in the range of 15 to 60 nM.

As to `N#Cc1ncnc(N[C@@H]2CCCN(Cc3ccc(-n4c(-c5cccnc5N)nc5ccc(-c6ccccc6)nc54)cc3)C2)n1` [Example 337, (R)-4-((1-(4-(2-(2-Aminopyridin-3-yl)-5-phenyl-3H-imidazo[4,5-b]pyridin-3-yl)benzyl)piperidin-3-yl)amino)-1,3,5-triazine-2-carbonitrile], the 50% inhibitory concentration (IC50) was less than 15 nM.

As to `N#Cc1nccc(NC2CCN(Cc3ccc(-n4c(-c5cccnc5N)nc5ccc(-c6ccc[nH]c6=O)nc54)cc3)CC2)n1` [Example 538, 4-((1-(4-(2-(2-Aminopyridin-3-yl)-5-(2-hydroxypyridin-3-yl)-3H-imidazo[4,5-b]pyridin-3-yl)benzyl)piperidin-4-yl)amino)pyrimidine-2-carbonitrile], the concentration for half-maximal inhibition (IC50) was in the range of 15 to 60 nM.

Consider `CC(C)Oc1ccc(-c2ccc3nc(-c4cccnc4N)n(-c4ccc(CN5CCC(Nc6ccnc(C#N)n6)CC5)cc4)c3n2)nc1` [Example 586, 4-((1-(4-(2-(2-Aminopyridin-3-yl)-5-(5-isopropoxypyridin-2-yl)-3H-imidazo[4,5-b]pyridin-3-yl)benzyl)piperidin-4-yl)amino)pyrimidine-2-carbonitrile], for which the half-inhibitory concentration (IC50) is less than 15 nM.

For the molecule `N#Cc1nccc(NC2CCN(Cc3ccc(-n4c(-c5cccnc5N)nc5ccc(-c6ccc(F)cc6O)nc54)cc3)CC2)n1` [Example 544, 4-((1-(4-(2-(2-Aminopyridin-3-yl)-5-(4-fluoro-2-hydroxyphenyl)-3H-imidazo[4,5-b]pyridin-3-yl)benzyl)piperidin-4-yl)amino)pyrimidine-2-carbonitrile], the IC50 is less than 15 nM.

Consider `N#Cc1ccnc(NC2CCN(Cc3ccc(-n4c(-c5cccnc5N)nc5ccc(-c6ccc(Cl)cc6)nc54)cc3)CC2)n1` [Example 371, 2-((1-(4-(2-(2-Aminopyridin-3-yl)-5-(4-chlorophenyl)-3H-imidazo[4,5-b]pyridin-3-yl)benzyl)piperidin-4-yl)amino)pyrimidine-4-carbonitrile], for which the concentration for half-maximal inhibition (IC50) was in the range of 60 to 600 nM.

Turning to `Cc1ccc(-c2ccc3nc(-c4cccnc4N)n(-c4ccc(CN5CCC(Nc6ccnc(C#N)n6)CC5)cc4)c3n2)cn1` [Example 534, 4-((1-(4-(2-(2-Aminopyridin-3-yl)-5-(6-methylpyridin-3-yl)-3H-imidazo[4,5-b]pyridin-3-yl)benzyl)piperidin-4-yl)amino)pyrimidine-2-carbonitrile], the IC50 was less than 15 nM.

Take `N#Cc1nccc(NC2CCN(Cc3ccc(-n4c(-c5cccnc5N)nc5ccc(-c6cccc(N)c6)nc54)cc3)CC2)n1` [Example 517, 4-((1-(4-(5-(3-Aminophenyl)-2-(2-aminopyridin-3-yl)-3H-imidazo[4,5-b]pyridin-3-yl)benzyl)piperidin-4-yl)amino)pyrimidine-2-carbonitrile]: the IC50 is less than 15 nM.

Consider `N#Cc1nccc(NC2CCN(Cc3ccc(-n4c(-c5cccnc5N)nc5c(O)ncnc54)cc3)CC2)n1` [Example 494, 4-((1-(4-(8-(2-aminopyridin-3-yl)-6-hydroxy-9H-purin-9-yl)benzyl)piperidin-4-yl)amino)pyrimidine-2-carbonitrile], for which the IC50 is 600 to 10000 nM.

Turning to `CCc1ccc2nc(-c3cccnc3N)n(-c3ccc(CN4CCC(Nc5ccnc(C#N)n5)CC4)cc3)c2n1` [Example 397, 4-((1-(4-(2-(2-Aminopyridin-3-yl)-5-ethyl-3H-imidazo[4,5-b]pyridin-3-yl)benzyl)piperidin-4-yl)amino)pyrimidine-2-carbonitrile], the IC50 was less than 15 nM.

With `N#Cc1ccnc(NC2CCN(Cc3ccc(-n4c(-c5cccnc5N)nc5ccc(N6CCCNC(=O)C6)nc54)cc3)CC2)n1` [Example 347, 2-((1-(4-(2-(2-Aminopyridin-3-yl)-5-(3-oxo-1,4-diazepan-1-yl)-3H-imidazo[4,5-b]pyridin-3-yl)benzyl)piperidin-4-yl)amino)pyrimidine-4-carbonitrile], the IC50 lay within 60 to 600 nM.

Take `[2H]c1nn(C)nc1-c1ccc2nc(-c3cccnc3N)n(-c3ccc(CN4CCC(Nc5ccnc(C#N)n5)CC4)cc3)c2n1` [Example 616, 4-((1-(4-(2-(2-Aminopyridin-3-yl)-5-(2-methyl-2H-1,2,3-triazol-4-yl-5-d)-3H-imidazo[4,5-b]pyridin-3-yl)benzyl)piperidin-4-yl)amino)pyrimidine-2-carbonitrile]: the IC50 was less than 15 nM.

Still in this assay, the particulars now being: competitive tracer displacement in living cells, read-out: AKT1 E17K IC50.
In the case of `CC(=O)Nc1cccc(-c2ccc3nc(-c4cccnc4N)n(-c4ccc(CN5CCN(c6cncc(C#N)n6)CC5)cc4)c3n2)c1` [Example 40, N-(3-(2-(2-aminopyridin-3-yl)-3-(4-((4-(6-cyanopyrazin-2-yl)piperazin-1-yl)methyl)phenyl)-3H-imidazo[4,5-b]pyridin-5-yl)phenyl)acetamide], the IC50 is less than 15 nM.

For the molecule `N#Cc1nc2cc(C(=O)NC3CCN(Cc4ccc(-n5c(-c6cccnc6N)nc6ccc(-c7ccccc7)nc65)cc4)CC3)ccc2s1` [Example 185, N-(1-(4-(2-(2-aminopyridin-3-yl)-5-phenyl-3H-imidazo[4,5-b]pyridin-3-yl)benzyl)piperidin-4-yl)-2-cyanobenzo[d]thiazole-5-carboxamide], the IC50 was less than 15 nM.

Take `N#Cc1nccc(NCc2ccc(-n3c(-c4cccnc4N)nc4cccnc43)cc2)n1` [Example 47, 4-((4-(2-(2-Aminopyridin-3-yl)-3H-imidazo[4,5-b]pyridin-3-yl)benzyl)amino)pyrimidine-2-carbonitrile]: the IC50 was 600 to 10000 nM.

Regarding `CC(=O)Nc1cccc(-c2ccc3nc(-c4cccnc4N)n(-c4ccc(CN5CCN(c6ccnc(C#N)n6)CC5)cc4)c3n2)c1` [Example 44, N-(3-(2-(2-Aminopyridin-3-yl)-3-(4-((4-(2-cyanopyrimidin-4-yl)piperazin-1-yl)methyl)phenyl)-3H-imidazo[4,5-b]pyridin-5-yl)phenyl)acetamide], the IC50 was less than 15 nM.

Take `N#Cc1ccnc(N2CC3CCC(C2)N3Cc2ccc(-n3c(-c4cccnc4N)nc4ccc(-c5ccccc5)nc43)cc2)n1` [Example 212, 2-(8-(4-(2-(2-Aminopyridin-3-yl)-5-phenyl-3H-imidazo[4,5-b]pyridin-3-yl)benzyl)-3,8-diazabicyclo[3.2.1]octan-3-yl)pyrimidine-4-carbonitrile]: the 50% inhibitory concentration (IC50) lay within 60 to 600 nM.

Turning to `N#Cc1ncnc(N2CC3CCC2CN3Cc2ccc(-n3c(-c4cccnc4N)nc4ccc(-c5ccccc5)nc43)cc2)n1` (stereo not drawn) [Example 257, 4-(5-(4-(2-(2-Aminopyridin-3-yl)-5-phenyl-3H-imidazo[4,5-b]pyridin-3-yl)benzyl)-2,5-diazabicyclo[2.2.2]octan-2-yl)-1,3,5-triazine-2-carbonitrile], the IC50 lay within 15 to 60 nM.

For the molecule `N#Cc1nccc(C(=O)NC2CCN(Cc3ccc(-n4c(-c5cccnc5N)nc5cccnc54)cc3)CC2)n1` [Example 32, N-(1-(4-(2-(2-Aminopyridin-3-yl)-3H-imidazo[4,5-b]pyridin-3-yl)benzyl)piperidin-4-yl)-2-cyanopyrimidine-4-carboxamide], the IC50 fell in the range of 60 to 600 nM.

Consider `N#Cc1ccc(C(=O)N2CCN(Cc3ccc(-n4c(-c5cccnc5N)nc5ccc(-c6ccccc6)nc54)cc3)CC2)cn1` [Example 166, 5-(4-(4-(2-(2-Aminopyridin-3-yl)-5-phenyl-3H-imidazo[4,5-b]pyridin-3-yl)benzyl)piperazine-1-carbonyl)picolinonitrile], for which the IC50 was in the range of 15 to 60 nM.

With `N#Cc1cccc(OC2CCN(Cc3ccc(-n4c(-c5cccnc5N)nc5cccnc54)cc3)CC2)n1` [Example 4, 6-((1-(4-(2-(2-Aminopyridin-3-yl)-3H-imidazo[4,5-b]pyridin-3-yl)benzyl)piperidin-4-yl)oxy)picolinonitrile], the IC50 was in the range of 600 to 10000 nM.

For `N#Cc1cccc(C(=O)N2CCN(Cc3ccc(-n4c(-c5cccnc5N)nc5cccnc54)cc3)CC2)n1` [Example 69, 6-(4-(4-(2-(2-Aminopyridin-3-yl)-3H-imidazo[4,5-b]pyridin-3-yl)benzyl)piperazine-1-carbonyl)picolinonitrile], the IC50 is 600 to 10000 nM.

Turning to `[2H]C([2H])([2H])N(c1ccnc(C#N)n1)C1CCN(Cc2ccc(-n3c(-c4cccnc4N)nc4ccc(-c5ccccc5)nc43)cc2)CC1` [Example 232, 4-((1-(4-(2-(2-Aminopyridin-3-yl)-5-phenyl-3H-imidazo[4,5-b]pyridin-3-yl)benzyl)piperidin-4-yl)(methyl-d3)amino)pyrimidine-2-carbonitrile], the IC50 was less than 15 nM.

In the case of `N#Cc1cc(NC2CCN(Cc3ccc(-n4c(-c5cccnc5N)nc5ccc(-c6ccccc6)nc54)cc3)CC2)ccn1` [Example 85, 4-((1-(4-(2-(2-Aminopyridin-3-yl)-5-phenyl-3H-imidazo[4,5-b]pyridin-3-yl)benzyl)piperidin-4-yl)amino)picolinonitrile], the IC50 was less than 15 nM.
